Data set [1] concerns MCF-7 breast cancer cells. The data set is described as follows: MCF-7 xenograft under kidney capsule of nude mice, tumor growth. Particulars: 30 days; for tumor growth of MCF-7 grafts: subcutaneous osmotic pump, E2 0.4 mg, liquiritigenin 2 mg. Type of data set: in vivo. As to the method:
(§1) MCF-7 (250,000) cells were aggregated in suspension and then resuspended in 200 μL neutralized collagen, as previously described (Parmar et al., Endocrinology 143:4886-4896 (2002). The cells were then grafted under the kidney capsule of nude mice as described and illustrated in detail at: http://mammary.nih.gov/tools/mousework/Cunha001/index.html. Five mice per group were treated with a continuous infusion using osmotic pumps (Alzet, Cupertino, Calif.) containing vehicle, E2 (0.4 mg) or liquiritigenin (2 mg) that infused 2.5 μl/h for 1 month. After one month of treatment, the tumors and uteri were removed and analyzed. These animal studies were carried out with approval from the University of California, San Francisco Committee on Animal Research. The major concern with estrogens for menopausal symptoms is the proliferation of breast and endometrial cells causing an increased risk for breast and uterine cancer. To determine if liquiritigenin has a proliferative effect on breast cancer and endometrial cells, MCF-7 breast cancer cells were grafted under the kidney capsule of nude mice. Using a subcutaneous osmotic pump designed to deliver a steady dose of drug, the mice were treated for 30 days with vehicle, E2, or liquiritigenin.

In a further data set the test system is ERα and ERβ. Particulars: cited from earlier work.
Data set [2] has as its system mammary and uterine tissue. The conditions noted are these: rat, in vivo; cited from earlier work.
The next data set deals with T1, androgen receptor (AR) (Homo sapiens, UniProt P10275).
T1 sequence (P10275 1-920): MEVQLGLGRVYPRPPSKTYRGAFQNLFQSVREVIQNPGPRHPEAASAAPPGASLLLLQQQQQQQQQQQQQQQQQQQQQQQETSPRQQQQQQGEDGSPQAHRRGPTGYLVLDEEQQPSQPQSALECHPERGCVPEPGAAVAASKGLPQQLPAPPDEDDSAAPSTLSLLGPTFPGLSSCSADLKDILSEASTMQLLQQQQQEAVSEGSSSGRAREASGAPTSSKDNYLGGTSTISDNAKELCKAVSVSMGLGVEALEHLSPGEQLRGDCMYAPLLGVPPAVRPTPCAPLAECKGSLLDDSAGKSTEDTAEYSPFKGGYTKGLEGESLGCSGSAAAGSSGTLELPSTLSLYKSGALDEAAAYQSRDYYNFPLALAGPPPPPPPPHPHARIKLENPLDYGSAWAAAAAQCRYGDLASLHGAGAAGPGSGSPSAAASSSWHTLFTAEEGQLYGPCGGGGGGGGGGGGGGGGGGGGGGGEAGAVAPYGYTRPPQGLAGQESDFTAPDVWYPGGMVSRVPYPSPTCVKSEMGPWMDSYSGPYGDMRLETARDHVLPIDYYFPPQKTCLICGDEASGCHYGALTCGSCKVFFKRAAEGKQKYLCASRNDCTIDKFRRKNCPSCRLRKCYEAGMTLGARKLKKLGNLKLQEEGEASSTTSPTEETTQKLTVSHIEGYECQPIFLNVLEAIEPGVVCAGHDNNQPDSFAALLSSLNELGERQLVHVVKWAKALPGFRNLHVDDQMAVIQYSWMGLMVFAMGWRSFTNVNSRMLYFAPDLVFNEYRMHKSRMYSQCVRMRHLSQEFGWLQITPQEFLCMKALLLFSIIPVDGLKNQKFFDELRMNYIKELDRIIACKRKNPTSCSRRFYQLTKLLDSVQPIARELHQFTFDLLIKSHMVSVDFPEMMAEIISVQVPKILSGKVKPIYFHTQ
The experiment in a line: TAT3-luciferase transfection assay with androgen receptor in U2OS cells. Particulars: 2.5 μM, 18 h.

Data set [3] addresses T2, progesterone receptor B (PR) (Homo sapiens, UniProt P06401).
T2 sequence (P06401 1-933): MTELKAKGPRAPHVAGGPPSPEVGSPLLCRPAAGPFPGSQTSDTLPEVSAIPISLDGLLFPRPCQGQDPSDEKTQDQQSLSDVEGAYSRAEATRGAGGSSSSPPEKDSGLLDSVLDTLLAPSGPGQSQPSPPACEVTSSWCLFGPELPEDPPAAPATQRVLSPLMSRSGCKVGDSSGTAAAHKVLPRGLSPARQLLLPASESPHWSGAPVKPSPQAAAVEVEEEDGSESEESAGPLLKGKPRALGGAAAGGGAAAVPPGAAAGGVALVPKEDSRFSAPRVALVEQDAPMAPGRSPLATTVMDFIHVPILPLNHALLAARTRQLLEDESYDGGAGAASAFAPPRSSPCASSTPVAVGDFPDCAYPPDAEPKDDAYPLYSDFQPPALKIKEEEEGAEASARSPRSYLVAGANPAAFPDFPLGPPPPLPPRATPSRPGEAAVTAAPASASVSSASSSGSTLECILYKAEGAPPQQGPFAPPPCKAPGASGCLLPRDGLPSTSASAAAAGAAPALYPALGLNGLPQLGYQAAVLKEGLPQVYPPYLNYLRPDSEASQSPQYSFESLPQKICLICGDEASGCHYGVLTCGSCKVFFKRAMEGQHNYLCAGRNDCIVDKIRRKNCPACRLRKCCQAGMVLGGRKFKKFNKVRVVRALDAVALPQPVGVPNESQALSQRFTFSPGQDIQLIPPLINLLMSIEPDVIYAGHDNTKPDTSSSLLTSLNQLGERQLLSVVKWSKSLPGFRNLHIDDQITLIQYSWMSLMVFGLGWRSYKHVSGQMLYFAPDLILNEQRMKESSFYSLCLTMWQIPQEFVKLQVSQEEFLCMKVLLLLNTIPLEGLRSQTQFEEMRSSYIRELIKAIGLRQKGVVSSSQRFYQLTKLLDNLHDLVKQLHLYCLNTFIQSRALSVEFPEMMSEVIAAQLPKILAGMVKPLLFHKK
The data set is described as follows: TAT3-luciferase transfection assay with progesterone receptor B in U2OS cells. Particulars: 2.5 μM, 18 h.

The next data set concerns uterus. The data set is described as follows: MCF-7 xenograft study in nude mice, uterine horn mass. Type of data set: in vivo. The conditions noted are these: osmotic pump, 30 days, E2 0.4 mg, liquiritigenin 2 mg. On the procedure:
as §1

For data set [4], the target named is T3, glucocorticoid receptor (GR) (Homo sapiens, UniProt P04150).
T3 sequence (P04150 1-777): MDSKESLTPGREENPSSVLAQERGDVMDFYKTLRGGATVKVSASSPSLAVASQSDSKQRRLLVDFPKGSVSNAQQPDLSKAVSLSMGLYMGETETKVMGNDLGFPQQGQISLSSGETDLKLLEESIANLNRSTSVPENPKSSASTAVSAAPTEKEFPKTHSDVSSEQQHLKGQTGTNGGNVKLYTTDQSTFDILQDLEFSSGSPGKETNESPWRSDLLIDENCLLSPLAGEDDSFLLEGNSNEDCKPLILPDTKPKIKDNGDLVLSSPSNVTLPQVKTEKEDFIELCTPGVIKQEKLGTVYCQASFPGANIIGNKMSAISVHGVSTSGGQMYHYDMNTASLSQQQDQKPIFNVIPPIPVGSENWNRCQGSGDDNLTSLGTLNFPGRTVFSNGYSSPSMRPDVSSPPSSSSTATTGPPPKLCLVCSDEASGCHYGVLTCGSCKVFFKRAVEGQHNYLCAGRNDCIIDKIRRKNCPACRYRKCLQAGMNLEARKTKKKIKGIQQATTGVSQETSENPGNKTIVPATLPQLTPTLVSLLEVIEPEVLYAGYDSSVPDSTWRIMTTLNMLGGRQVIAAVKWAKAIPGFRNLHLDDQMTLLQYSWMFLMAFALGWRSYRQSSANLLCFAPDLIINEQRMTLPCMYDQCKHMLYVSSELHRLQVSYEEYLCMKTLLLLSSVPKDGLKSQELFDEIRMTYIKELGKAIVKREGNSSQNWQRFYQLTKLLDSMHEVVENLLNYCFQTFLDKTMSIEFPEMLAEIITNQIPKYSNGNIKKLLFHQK
The experiment in a line: MMTV-luciferase transfection assay with glucocorticoid receptor in U2OS cells. Particulars: 2.5 μM, 18 h.

Data set [5] has as its target T4, ERα (Homo sapiens, UniProt P03372).
T4 sequence (P03372 1-595): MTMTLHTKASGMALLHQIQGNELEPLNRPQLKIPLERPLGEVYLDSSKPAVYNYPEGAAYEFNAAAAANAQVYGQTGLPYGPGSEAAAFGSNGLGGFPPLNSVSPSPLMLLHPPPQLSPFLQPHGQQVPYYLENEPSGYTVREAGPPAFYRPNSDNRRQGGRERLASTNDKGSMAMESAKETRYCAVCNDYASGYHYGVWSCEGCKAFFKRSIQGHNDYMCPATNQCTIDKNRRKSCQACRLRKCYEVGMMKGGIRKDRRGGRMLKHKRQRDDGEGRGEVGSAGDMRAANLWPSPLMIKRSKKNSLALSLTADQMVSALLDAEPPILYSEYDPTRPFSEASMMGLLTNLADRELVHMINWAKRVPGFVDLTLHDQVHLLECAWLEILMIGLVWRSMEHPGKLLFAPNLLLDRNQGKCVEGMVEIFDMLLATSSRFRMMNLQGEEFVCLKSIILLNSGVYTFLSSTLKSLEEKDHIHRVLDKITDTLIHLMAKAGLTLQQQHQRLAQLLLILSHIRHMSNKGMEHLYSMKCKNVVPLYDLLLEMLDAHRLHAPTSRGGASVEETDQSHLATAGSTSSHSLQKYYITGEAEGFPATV
The experiment in a line: Native ER regulatory element (CECR6, NKG2E, NKD) tk-Luc transfection assay with ERα. The class given is cell-based. Also noted: expressed in transfected cells; host or cells: U2OS. The text has this: In addition to the traditional ERE, it is important to determine if liquiritigenin selectivity activates ERβ in elements derived from native ER target genes. ER regulatory elements from the cat eye syndrome chromosome region candidate 6 (CECR6), killer cell lectin-like receptor (NKG2E) and the naked cuticule homolog (NKD) genes that are activated by E2 Levy et al., Endocrinology doi:10.1210/en.2006-1632 (2007)) were used. CECR6-tk-Luc (A), NKG2E-tk-Luc (B), and NKD-tk-Luc (C) were transfected into U2OS cells with expression vectors for human ERα or ERβ. […] Liquiritigenin produced a dose-dependent activation of CECR6, NKG2E, and NKD with ERβ but not with ERα (FIGS. 4A, 4B, 4C, respectively). The cells were then treated for increasing times with liquiritigenin.

The target in data set [6] is T5, thyroid hormone receptor β1 (TR) (Homo sapiens, UniProt P10828).
T5 sequence (P10828 1-461): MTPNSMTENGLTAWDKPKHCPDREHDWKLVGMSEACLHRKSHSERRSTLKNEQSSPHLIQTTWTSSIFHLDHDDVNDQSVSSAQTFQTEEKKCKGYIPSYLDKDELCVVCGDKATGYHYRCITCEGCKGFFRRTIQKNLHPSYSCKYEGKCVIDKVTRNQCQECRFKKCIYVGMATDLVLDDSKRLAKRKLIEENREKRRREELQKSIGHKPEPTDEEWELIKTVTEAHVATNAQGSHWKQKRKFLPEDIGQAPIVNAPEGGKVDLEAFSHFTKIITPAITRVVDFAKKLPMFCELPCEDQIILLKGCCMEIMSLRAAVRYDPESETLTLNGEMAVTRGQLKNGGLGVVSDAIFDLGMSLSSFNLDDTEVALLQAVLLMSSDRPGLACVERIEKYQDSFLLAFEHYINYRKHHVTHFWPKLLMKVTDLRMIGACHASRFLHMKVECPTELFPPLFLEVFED
The data set is described as follows: F2-tkLuc transfection assay with thyroid hormone receptor β1 in U2OS cells. The conditions noted are these: 2.5 μM, 18 h.

Data set [7] has as its target T4, ERα. The data set is described as follows: Real-time PCR of native target gene mRNA in U2OS-ERα cells. The class given is cell-based. Also noted: expressed in transfected cells. The conditions noted are these: 1 μM. (In general: Real-time PCR tracks product formation cycle by cycle.)
Where [8] appears, read: U2OS cells, 18 h, increasing amounts.

The structures appear in SMILES notation. Entries after “also recorded” stand apart in the source; their conditions may differ.

On to `C[C@]12CC[C@@H]3c4ccc(O)cc4CC[C@H]3[C@@H]1CC[C@@H]2O` [E2, 17β-Estra-1,3,5(10)-triene-3,17-diol, reference compound], for which the “tumor growth of MCF-7 grafts” value in [1] is “Large tumors developed; also recorded: causes the formation of large tumors”. Moreover, the “binding affinity to ERβ compared to ERα” value in the data set on ERα and ERβ is given as “equal affinity”.
In the case of `C=Cc1cc(O)cc2nc(-c3ccc(O)c(F)c3)oc12` [ERβ-041], the “proliferative effects on mammary and uterine tissue” value in [2] is “does not elicit any proliferative effects”.
Take `O=C1C[C@@H](c2ccc(O)cc2)Oc2cc(O)ccc21` [liquiritigenin, (2S)-7-hydroxy-2-(4-hydroxyphenyl)-2,3-dihydro-4H-1-benzopyran-4-one]: the “activation of androgen receptor (luciferase)” value at androgen receptor (AR) was “did not activate”. Also, the “weight of the tumors compared to the control mice” value in data set [1] (osmotic pump, 2 mg) is “no differences in the weight of the tumors”. In [1], the “tumor growth of MCF-7 grafts” value is listed as “essentially no tumor growth; also recorded: does not stimulate breast cancer tumor formation”. Moreover, in data set [3], the “activation of progesterone receptor B (luciferase)” value is “did not activate”. The uterine horn mass result with uterus is “did not increase uterine horn mass”. For the same molecule, the uterine horn mass result in the data set with uterus (listed as liquirtigenin) is “does not increase the size of the uterus”. The “activation of glucocorticoid receptor (luciferase)” value in [4] was “did not activate”. The “activation of multiple ER regulatory elements” value at ERα [5] (1 μM, ERα) was “does not activate”. Moreover, on ERα [5] (setting [8]), the “activation of CECR6-tk-Luc with ERα” value is listed as “not with ERα” and the “activation of NKD-tk-Luc with ERα” value is “not with ERα”. Besides, the “activation of thyroid hormone receptor (luciferase)” value in data set [6] is recorded as “did not activate”. In addition, on ERα [7], the “activation of endogenous genes in U2OS-ERα cells” value is “does not activate”.
Take `O=c1c(-c2ccc(O)cc2)coc2cc(O)cc(O)c12` [genistein]: the “binding affinity to ERβ compared to ERα” value in the data set on ERα and ERβ was “higher affinity; also recorded: binds better to ERβ than ERα”.

The values above are taken from patent publication US20090042818A1, “Liquiritigenin and Derivatives as Selective Estrogen Receptor Beta Agonists” (BIONOVO, INC., priority 2007, published 2009).
